From patent US11718604B2, “4-amino-6-(1,3-benzodioxole)picolinates and their use as herbicides” (Dow AgroSciences LLC, priority 2018, dated 2023)

Columns and labels:
Format in all cases: in vivo
[1] = test system: ABUTH: velvetleaf (Abutilon theophrasti); assay: Post-emergent herbicidal test, velvetleaf; conditions: post-emergence, 336 h, 14 days after application, read-out: Visual Growth Reduction (%) 14 Days After Application ABUTH
Experimental: (§1) Post-Emergent Test: Seeds or nutlets of the desired test plant species were planted in Sun Gro Metro-Mix® 360 planting mixture, which typically has a pH of 6.0 to 6.8 and an organic matter content of about 30 percent, in plastic pots with a surface area of 64 square centimeters (cm^2). When required to ensure good germination and healthy plants, a fungicide treatment and/or other chemical or physical treatment was applied. The plants were grown for 7-21 d in a greenhouse with an approximate 15 h photoperiod which was maintained at about 23-29° C. during the day and 22-28° C. during the night. Nutrients and water were added on a regular basis and supplemental lighting was provided with overhead metal halide 1000-Watt lamps as necessary. The plants were employed for testing when they reached the first or second true leaf stage.
(§2) A weighed amount, determined by the highest rate to be tested, of each test compound was placed in a 25 mL glass vial and was dissolved in 4 mL of a 97:3 v/v mixture of acetone and DMSO to obtain concentrated stock solutions. […] The concentrated stock solutions obtained were diluted with 20 mL of an aqueous mixture containing acetone, water, isopropyl alcohol, DMSO, Atplus 411F crop oil concentrate, and Triton® X-155 surfactant in a 48.5:39:10:1.5:1.0:0.02 v/v ratio to obtain spray solutions containing the highest application rates. Additional application rates were obtained by serial dilution of 12 mL of the high rate solution into a solution containing 2 mL of a 97:3 v/v mixture of acetone and DMSO and 10 mL of an aqueous mixture containing acetone, water, isopropyl alcohol, DMSO, Atplus 411F crop oil concentrate, and Triton X-155 surfactant in a 48.5:39:10:1.5:1.0:0.02 v/v ratio to obtain ½×, ¼×, ⅛× and 1/16× rates of the high rate. Compound requirements are based upon a 12 mL application volume at a rate of 187 liters per hectare (L/ha). Formulated compounds were applied to the plant material with an overhead Mandel track sprayer equipped with 8002E nozzles calibrated to deliver 187 L/ha over an application area of 0.503 square meters at a spray height of 18 inches (43 cm) above the average plant canopy height. Control plants were sprayed in the same manner with the solvent blank.
(§3) The treated plants and control plants were placed in a greenhouse as described above and watered by subirrigation to prevent wash-off of the test compounds. After 14 d, the condition of the test plants as compared with that of the untreated plants was determined visually and scored on a scale of 0 to 100 percent where 0 corresponds to no injury and 100 corresponds to complete kill.

[2] = test system: BRSNN: oilseed rape, canola (Brassica napus); assay: Post-emergent herbicidal test, oilseed rape; conditions: post-emergence, 336 h, 14 days after application, read-out: Visual Growth Reduction (%) 14 Days After Application BRSNN
Experimental: as §1, §2, §3

[3] = test system: CIRAR: Canada thistle (Cirsium arvense); assay: Post-emergent herbicidal test, Canada thistle; conditions: post-emergence, 336 h, 14 days after application, read-out: Visual Growth Reduction (%) 14 Days After Application CIRAR
Experimental: as §1, §2, §3

[4] = test system: EPHHL: wild poinsettia (Euphorbia heterophylla); assay: Post-emergent herbicidal test, wild poinsettia; conditions: post-emergence, 336 h, 14 days after application, read-out: Visual Growth Reduction (%) 14 Days After Application EPHHL
Experimental: as §1, §2, §3

[5] = test system: IPOHE: ivyleaf morningglory (Ipomoea hederacea); assay: Post-emergent herbicidal test, ivyleaf morningglory; conditions: post-emergence, 336 h, 14 days after application, read-out: Visual Growth Reduction (%) 14 Days After Application IPOHE
Experimental: as §1, §2, §3

[6] = test system: VIOTR: wild violet (Viola tricolor); assay: Post-emergent herbicidal test, wild violet; conditions: post-emergence, 336 h, 14 days after application, read-out: Visual Growth Reduction (%) 14 Days After Application VIOTR
Experimental: as §1, §2, §3

[7] = test system: CYPES: yellow nutsedge (Cyperus esculentus); assay: Post-emergent herbicidal test, yellow nutsedge; conditions: post-emergence, 336 h, 14 days after application, read-out: Visual Growth Reduction (%) 14 Days After Application CYPES
Experimental: as §1, §2, §3

[8] = test system: DIGSA: large crabgrass (Digitaria sanguinalis); assay: Post-emergent herbicidal test, large crabgrass; conditions: post-emergence, 336 h, 14 days after application, read-out: Visual Growth Reduction (%) 14 Days After Application DIGSA
Experimental: as §1, §2, §3

[9] = test system: ECHCG: barnyardgrass (Echinochloa crus-galli); assay: Post-emergent herbicidal test, barnyardgrass; conditions: post-emergence, 336 h, 14 days after application, read-out: Visual Growth Reduction (%) 14 Days After Application ECHCG
Experimental: as §1, §2, §3

[10] = test system: SETFA: giant foxtail (Setaria faberi); assay: Post-emergent herbicidal test, giant foxtail; conditions: post-emergence, 336 h, 14 days after application, read-out: Visual Growth Reduction (%) 14 Days After Application SETFA
Experimental: as §1, §2, §3

[11] = test system: SORVU: shattercane (Sorghum bicolor); assay: Post-emergent herbicidal test, shattercane; conditions: post-emergence, 336 h, 14 days after application, read-out: Visual Growth Reduction (%) 14 Days After Application SORVU
Experimental: as §1, §2, §3

Structure (SMILES): Nc1c(F)c(-c2ccc(Cl)c3c2OCO3)nc(C(=O)OCc2ccccc2)c1Cl [Compound 1B]
- pest or weed control at 17.5 g/ha ([1]; 17.5 g ai/ha): 90%
- pest or weed control at 35 g/ha ([1]; 35 g ai/ha): 95%
- pest or weed control at 70 g/ha ([1]; 70 g ai/ha): 100%
- pest or weed control at 140 g/ha ([1]; 140 g ai/ha): 100%
- pest or weed control at 17.5 g/ha ([2]; 17.5 g ai/ha): 95%
- pest or weed control at 35 g/ha ([2]; 35 g ai/ha): 100%
- pest or weed control at 70 g/ha ([2]; 70 g ai/ha): 100%
- pest or weed control at 140 g/ha ([2]; 140 g ai/ha): 100%
- pest or weed control at 17.5 g/ha ([3]; 17.5 g ai/ha): 75%
- pest or weed control at 35 g/ha ([3]; 35 g ai/ha): 80%
- pest or weed control at 70 g/ha ([3]; 70 g ai/ha): 85%
- pest or weed control at 140 g/ha ([3]; 140 g ai/ha): 90%
- pest or weed control at 17.5 g/ha ([4]; 17.5 g ai/ha): 10%
- pest or weed control at 35 g/ha ([4]; 35 g ai/ha): 10%
- pest or weed control at 70 g/ha ([4]; 70 g ai/ha): 15%
- pest or weed control at 140 g/ha ([4]; 140 g ai/ha): 10%
- pest or weed control at 17.5 g/ha ([5]; 17.5 g ai/ha): 0%
- pest or weed control at 35 g/ha ([5]; 35 g ai/ha): 0%
- pest or weed control at 70 g/ha ([5]; 70 g ai/ha): 0%
- pest or weed control at 140 g/ha ([5]; 140 g ai/ha): 10%
- pest or weed control at 17.5 g/ha ([6]; 17.5 g ai/ha): 40%
- pest or weed control at 35 g/ha ([6]; 35 g ai/ha): 75%
- pest or weed control at 70 g/ha ([6]; 70 g ai/ha): 60%
- pest or weed control at 140 g/ha ([6]; 140 g ai/ha): 75%
- pest or weed control at 17.5 g/ha ([7]; 17.5 g ai/ha): 75%
- pest or weed control at 35 g/ha ([7]; 35 g ai/ha): 85%
- pest or weed control at 70 g/ha ([7]; 70 g ai/ha): 85%
- pest or weed control at 140 g/ha ([7]; 140 g ai/ha): 90%
- pest or weed control at 17.5 g/ha ([8]; 17.5 g ai/ha): 0%
- pest or weed control at 35 g/ha ([8]; 35 g ai/ha): 0%
- pest or weed control at 70 g/ha ([8]; 70 g ai/ha): 20%
- pest or weed control at 140 g/ha ([8]; 140 g ai/ha): 50%
- pest or weed control at 17.5 g/ha ([9]; 17.5 g ai/ha): 0%
- pest or weed control at 35 g/ha ([9]; 35 g ai/ha): 0%
- pest or weed control at 70 g/ha ([9]; 70 g ai/ha): 0%
- pest or weed control at 140 g/ha ([9]; 140 g ai/ha): 0%
- pest or weed control at 17.5 g/ha ([10]; 17.5 g ai/ha): 0%
- pest or weed control at 35 g/ha ([10]; 35 g ai/ha): 0%
- pest or weed control at 70 g/ha ([10]; 70 g ai/ha): 20%
- pest or weed control at 140 g/ha ([10]; 140 g ai/ha): 50%
- pest or weed control at 17.5 g/ha ([11]; 17.5 g ai/ha): 25%
- pest or weed control at 35 g/ha ([11]; 35 g ai/ha): 50%
- pest or weed control at 70 g/ha ([11]; 70 g ai/ha): 60%
- pest or weed control at 140 g/ha ([11]; 140 g ai/ha): 85%
